Data as given in patent US9504676B2, “Molecules inhibiting a metabolic pathway involving the Syk protein tyrosine kinase and method for identifying said molecules” (CENTRE NATIONAL DE LA RECHERCHE SCIENTIFIQUE, priority 2008, dated 2016).

What was measured:
BMMC cells = assay: C-13 toxicity test on BMMC cells (Annexin-V and Propidium Iodide); type: cell-based; details: mouse
Procedure: FIG. 10. Toxicity test of C-13 on BMMC cells. The BMMC cells were incubated at 37° C. in the presence of 2.5 μM or 5 μM of C-13, 0.25% DMF or Staurosporine. The percentages of live BMMC cells after 3 hours and after 5 days were detected by means of double Annexin-V and Propidium Iodide labelling. The viability of BMMC cells incubated in the presence of 2.5 μM or 5 μM of C-13 or 0.25% DMF was not affected to noteworthy degree after 3 hours (78%, 74% and 79% respectively) or five days (62, 56 and 57%, respectively). On the other hand, the viability of BMMC cells treated under the same conditions with Staurosporine was reduced to a level of 16% after only 3 hours.
• 1) Chemical products and antibodies. A chemical bank of 3000 molecules (a varied subset) was acquired from ChemBridge, Inc. (San Diego, Calif.). Stocks of solutions of small molecules were prepared at a rate of 10 mM in DMSO (dimethylsulphoxide), except for C-13 (methyl 2-{5-[(3-benzyl-4-oxo-2-thioxo-1,3-thiazolidin-5-ylidene)methyl]-2-furyl}benzoate, ChemBridge ID No. 6197026) prepared in DMF (dimethylformamide). Unless specified otherwise, all the reagents were supplied by Sigma. Dinitrophenyl (DNP) hapten was acquired from Calbiochem. Sepharose GammaBind G and all the secondary antibodies were supplied by GE Health Amersham Biosciences. The anti-Syk, anti-Lyn, anti-Btk, anti-PLC-γ1, anti-PLC-γ2, anti-LAT, anti-SLP-76, anti-p38, anti-JNK, anti-Vav, anti-Akt1 and 9E10 antibodies conjugated with HRP were acquired from Santa Cruz Biotechnology. The anti-phospho-p44/42 MAP Kinase, anti-p44/42 MAP Kinase, anti-phospho-p38, anti-phospho-JNK, anti-phospho-Akt1 antibodies were acquired from Cell Signaling. The anti-phospho-LAT and anti-phospho-PLC-γ1 antibodies were supplied by Biosource and the anti-phospho-SLP-76 antibodies by BD Pharmingen. The 4G10 anti-phosphotyrosine monoclonal antibody was acquired from Upstate Biotechnology. • 2) ADA method: ELISA type high-speed molecule screening test, based on antibody displacement (WO 2005106481). The recombinant fusion protein GST:Syk 6-242^8 comprising the residues 6 to 242 of murine Syk tyrosine kinase protein illustrated in FIG. 8B (SEQ ID No. 4) was immobilised on an ELISA plate at a final concentration of 10 μg ml^−1. For the screening of the chemical molecule bank, the small molecules, diluted in PBS at a final concentration of 10 μM were added to the wells for one hour at ambient temperature, before adding the fragment scFv G4G11 at a final concentration of 100 nM for an additional hour. The binding of G4G11 with Syk was assessed by adding the 9E10 monoclonal antibody conjugated with HRP detecting the amino acid sequence EQKLISEEDLN of human c-myc protein located at the C-terminal end of the scFv fragment. To generate Syk mutants, targeted mutagenesis was used on GST:Syk 6-242 protein and the binding of G4G11 with the mutants was assessed in the presence of 5 μM of C-13. • 3) Cells, culture conditions and functional tests. Anti-DNP 2682-I mouse monoclonal antibody was used as the culture supernatant of hybridomas containing 1 μg/ml of IgE. Femoral bone marrow cells were sampled and cultured in Opti-MEM medium (Gibco) supplemented with 10% foetal calf serum and 4% X63 transfectant supernatant secreting murine IL-3. RBL-2H3 (ATCC) leukaemic rat basophil cells were maintained in a single-layer culture in RPMI 1640 medium supplemented with 10% foetal calf serum (Gibco). […]

SLP-76 = assay: Phosphorylation of SLP-76 (phospho-specific antibodies); type: cell-based, rat; details: RBL-2H3 cells

COC(=O)c1ccccc1-c1ccc(/C=C2/SC(=S)N(Cc3ccccc3)C2=O)o1 [Molecule C-13, methyl 2-{5-[(3-benzyl-4-oxo-2-thioxo-1,3-thiazolidin-5-ylidene)methyl]-2-furyl}benzoate]
percentage of live BMMC cells (BMMC cells; 3 h, 2.5 μM): 78% | percentage of live BMMC cells (BMMC cells; 3 h, 5 μM): 74% | percentage of live BMMC cells (BMMC cells; 5 days, 2.5 μM): 62% | percentage of live BMMC cells (BMMC cells; 5 days, 5 μM): 56% | phosphorylation of SLP-76 (SLP-76): inhibits
